Experimental data: paper PMC6841977, “Ruxolitinib binding to human serum albumin: bioinformatics, biochemical and functional characterization in JAK2V617F^+ cell models” (Scientific Reports, 2019)
Blank lines part the entries; values can stand above or below the compound they belong to.

Experiments:
Type in all cases: binding
[1] = target: T1, human serum albumin (HSA) (Homo sapiens, UniProt P02768); assay: competitive displacement of heme-Fe(III) (spectrophotometry) and dansyl-arginine (fluorescence), pH […] °C
T1 construct: gene ALB; fatty acid-free human serum albumin
T1 sequence (P02768 25-609): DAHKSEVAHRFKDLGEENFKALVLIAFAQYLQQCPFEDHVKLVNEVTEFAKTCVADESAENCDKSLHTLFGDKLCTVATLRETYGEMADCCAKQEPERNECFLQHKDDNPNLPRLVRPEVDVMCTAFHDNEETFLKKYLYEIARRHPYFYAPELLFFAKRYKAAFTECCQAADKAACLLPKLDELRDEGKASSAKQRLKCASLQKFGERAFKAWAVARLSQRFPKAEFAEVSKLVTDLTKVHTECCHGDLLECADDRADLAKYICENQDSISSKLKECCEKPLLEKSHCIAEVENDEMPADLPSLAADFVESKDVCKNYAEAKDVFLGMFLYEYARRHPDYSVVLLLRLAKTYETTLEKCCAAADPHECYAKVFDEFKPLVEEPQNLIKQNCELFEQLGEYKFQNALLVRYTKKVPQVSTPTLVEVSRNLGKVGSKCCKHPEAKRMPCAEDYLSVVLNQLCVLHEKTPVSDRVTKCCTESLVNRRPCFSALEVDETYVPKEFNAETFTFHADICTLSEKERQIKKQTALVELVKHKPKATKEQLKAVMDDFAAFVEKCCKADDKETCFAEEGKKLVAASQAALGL

[2] = target: T1, human serum albumin (HSA); assay: spectrofluorimetric titration (ex […] nm, em […] nm), pH […] °C
[3] = target: T1, human serum albumin (HSA); assay: as above; remark: listed apart in the source
[4] = target: T1, human serum albumin (HSA); assay: spectrophotometric titration ([…]-460 nm), pH […] °C

Kd [1]: 3.1 ± 0.4 µM
SMILES: N#CC[C@H](C1CCCC1)n1cc(-c2ncnc3[nH]ccc23)cn1 [ruxolitinib]

Kd [2]: 27 ± 3 µM
SMILES: CN(C)c1cccc2c(S(=O)(=O)N[C@@H](CCCNC(=N)N)C(=O)O)cccc12 [dansyl-arginine]

SMILES: CN(C)c1cccc2c(S(=O)(=O)N(C)CC(=O)O)cccc12 [dansyl-sarcosine]
Kd [3]: 5.1 ± 0.5 µM

SMILES: C=CC1=C(C)C2=Cc3c(C=C)c(C)c4[n]3[Fe+][n]3c(c(C)c(CCC(=O)O)c3=CC3=NC(=C4)C(C)=C3CCC(=O)O)=CC1=N2 [heme-Fe(III)]
Kd [4]: 0.076 ± 0.008 µM
